Here are results for 33 substances from patent US5547856A, “Hepatocyte growth factor variants” (Genentech, Inc., priority 1993, dated 1996).

Assay [1] relates to rat hepatocytes in primary culture. In words: Mitogenic assay: induction of DNA synthesis (3H-TdR incorporation) of rat hepatocytes in primary culture. It is filed as cell-based. The following applies: for SA +/- mut/wt: Table 3, alterations near or within the hairpin domain; for SA +/- mut/wt / SA mut/wt +/- SD / SA var/SA wt +/-S.D.: * = did not reach the same absolute level as wild-type huHGF; for SA mut/wt +/- SD: Table 2, specific mitogenic activity relative to wt rhuHGF; for residual SA compared to WT rhuHGF: % of WT rhuHGF specific activity; for SA var/SA wt +/-S.D.: Table 1, specific mitogenic activity of variant relative to WT rhuHGF, at least three independent assays. The method, then:
The biological activity of WT huHGF and variants was measured by their abilities to induce DNA synthesis of rat hepatocytes in primary culture. […] Briefly, the livers of female Sprague Dawley rats (160-180 g) were perfused through the portal vein with 100 mL of Ca^++ free Hepes buffered saline containing 0.02% Collagenase type IV (Sigma). After 20 minutes the liver was removed, placed in buffer, gently stirred to separate hepatocytes from connective tissue and blood vessels, and filtered through nylon mesh. Cells were then washed by centrifugation, resuspended at 1×10^5 cells/mL in Williams Media E (Gibco) containing Penicillin (100 U/ml), Streptomycin ([…]), L-Glutamine (2 mM), trace elements (0.01%), transfertin ([…]) and Aprotinin ([…]). […] After 48 hours incubation at 37° C., 0.5 mCi 3H-TdR (15 Ci/mmole, Amersham) was added to each well and incubated for an additional 16 hours. Cells were harvested on filter papers, which were washed, dried and counted in a Beckman counter after addition of scintillation liquid. For each huHGF variant, the specific activity (SA) expressed in units/mg was calculated at half-maximal proliferation (defined as 1 unit/mL) using the HGF concentration obtained in ELISA.

Assay [2] deals with extracellular domain of the human HGF receptor (huHGFr) fused to the Fc constant region of an human IgG. In words: Soluble HGF receptor competitive binding assay (displacement of 125I-rhuHGF). The following applies: for Kdwt/mut: Table 2, Kd ratio wild type/mutant; for Kdwt/Kdvar +/-S.D.: Table 1, receptor binding capacity relative to WT rhuHGF, at least three independent assays; for receptor binding / Kd (in words): compared to WT rhuHGF. The method, then:
The coding sequence of the extracellular domain of the huHGFr was fused to those of the human IgGl heavy chain in a two-step process. […] The 5' primer (located in the vector upstream of the HeFr coding sequences) and the 3' primer (5'-[…]-3') (SEQ. ID. NO: 21) were used in a 100 μl reaction as described above except that the extension time at 72° C. was 3 minutes, and 40 ng of the full length HGFr expression vector was used as template. […] Sequencing of the construct was carried out as described above.
The binding assay was performed in breakable microtiter plates (Nunc) coated o/n at 4° C. with […] of rabbit-anti-human IgG Fc specific antibody (Jackson Immunoresearch) and plates were carefully washed with PBS containing 0.05% Tween 20 (Biorad). […] To each well […] of serial dilutions (1:25-1:6000) of cell supernatants, purified CHO-expressed rhuHGF ([…]) or medium were added in duplicates. Subsequently, […] of 50 pM of HGF receptor:IgG fusion protein were added and the plates were incubated with gentle shaking. After 4 hours, when equilibrium was reached, plates were washed and wells were individually counted in a gamma-counter. The amount of nonspecifically bound radioactivity was estimated by incubating HGF receptor:IgG with a 500-fold excess of unlabelled rhuHGF.

In assay [3] the test system is 145 kDa β-subunit of the HGF receptor in A549 cells. In words: Induction of tyrosine phosphorylation of the HGF receptor on A549 cells (Western blot). It is filed as cell-based, human. The conditions noted are these: serum-starved A549 cells, 200 ng/mL purified protein, 5 minutes. The method, then:
FIG. 4: Western blot of ligand-induced tyrosine-phosphorylation on the 145 kDa β-subunit of the HGF receptor by wild-type rhuHGF, single-chain or protease domain huHGF variants. […] Molecular masses (kilodaltons) are as indicated.
Serum-starved cells were incubated without or with 200 ng/mL rhuHGF for 5 minutes at 37° C. and extracted with lysis buffer containing 50 mM Hepes, 150 mM NaCl, 1.5 mM MgCl2, 1 mM EGTA, 10% Glycerol, 1% Triton X-100 and a cocktail of protease inhibitors. The lysates were immunoprecipitated with anti-Met COOH antibodies and blotted with anti-phosphotyrosine antibodies (see Western blotting above).

“Also recorded” adds a separate entry of the source.

Consider “D54A: huHGF variant with alteration near or within the hairpin domain”, for which, in assay [1], the “SA +/- mut/wt” value is 0.13 +/- 0.01.

Turning to “D117A: huHGF variant with alteration near or within the hairpin domain”, the “SA +/- mut/wt” value in assay [1] was determined as 0.02.

In the case of “E115A: huHGF variant with alteration near or within the hairpin domain”, the “SA +/- mut/wt” value in assay [1] is recorded as 0.20 +/- 0.02.

With “E159A: huHGF Kringle 1 domain substitution variant”, the Kdwt/mut in assay [2] was under 0.03. Also, the “SA mut/wt +/- SD” value in assay [1] was under 0.02.

For “F162A, L163A, S165A, S166A: huHGF Kringle 1 domain substitution variant”, the Kdwt/mut in assay [2] is given as 0.05 +/- 0.02. The “SA mut/wt +/- SD” value in assay [1] is under 0.02.

In the case of “F162A: huHGF Kringle 1 domain substitution variant”, the Kdwt/mut in assay [2] is recorded as 0.05 +/- 0.01. In addition, in assay [1], the “SA mut/wt +/- SD” value was 0.04 +/- 0.02.

Regarding “H114A, E115A, D117A: huHGF variant with alterations near or within the hairpin domain”, the “SA +/- mut/wt” value in assay [1] is given as under 0.02.

As to “H114A: huHGF variant with alteration near or within the hairpin domain”, the “SA +/- mut/wt” value in assay [1] is 0.16 +/- 0.04.

In the case of “K34A, R35A, R36A: huHGF variant with alterations near or within the hairpin domain”, in assay [1], the “SA +/- mut/wt” value is given as 0.71 +/- 0.33.

For “K52A, D54A: huHGF variant with alterations near or within the hairpin domain”, the “SA +/- mut/wt” value in assay [1] is listed as 0.32 +/- 0.03.

“K52A: huHGF variant with alteration near or within the hairpin domain”: the “SA +/- mut/wt” value in assay [1] was 0.19 +/- 0.03.

On to “K58A, K60A, K62A, K63A, N65A: huHGF variant with alterations near or within the hairpin domain”, for which the “SA +/- mut/wt” value in assay [1] is 6.96 +/- 0.12.

For the substance “K109A, K110A, E111A: huHGF variant with alterations near or within the hairpin domain”, the “SA +/- mut/wt” value in assay [1] is 0.98 +/- 0.04.

Take “K137A: huHGF Kringle 1 domain substitution variant”: the Kdwt/mut in assay [2] is 0.98 +/- 0.04. The “SA mut/wt +/- SD” value in assay [1] is 1.12 +/- 0.10.

Turning to “K144A, K148A: huHGF Kringle 1 domain substitution variant”, in assay [2], the Kdwt/mut is 1.03 +/- 0.08. In addition, the “SA mut/wt +/- SD” value in assay [1] is 0.93 +/- 0.16.

“L163A, S165A, S166A: huHGF Kringle 1 domain substitution variant”: in assay [2], the Kdwt/mut is 1.10 +/- 0.04. For the same substance, in assay [1], the “SA mut/wt +/- SD” value is given as 0.14 +/- 0.08.

For “N72A, R76A, N77A, K78A: huHGF variant with alterations near or within the hairpin domain”, in assay [1], the “SA +/- mut/wt” value is reported as 0.04 +/- 0.07.

Regarding “N193A, E195A, R197A: huHGF Kringle 1 domain substitution variant”, in assay [2], the Kdwt/mut was under 0.04. Also, the “SA mut/wt +/- SD” value in assay [1] is under 0.02.

In the case of “N193A: huHGF Kringle 1 domain substitution variant”, the Kdwt/mut in assay [2] is listed as 0.62 +/- 0.20. The “SA mut/wt +/- SD” value in assay [1] was 0.45 +/- 0.12.

On to “Q173A, E174A, N175A: huHGF Kringle 1 domain substitution variant”, for which the Kdwt/mut in assay [2] is recorded as 0.21 +/- 0.03. In addition, in assay [1], the “SA mut/wt +/- SD” value is on record as 0.33 +/- 0.07.

“Q173A: huHGF Kringle 1 domain substitution variant”: the Kdwt/mut in assay [2] is 0.15 +/- 0.05. In assay [1], the “SA mut/wt +/- SD” value was 0.13 +/- 0.03.

On to “Q534H, Y673S, V692S: huHGF protease domain triple variant”, for which, in assay [2], the “Kdwt/Kdvar +/-S.D.” value is on record as 1.91 +/- 1.28 and the “receptor binding / Kd (in words)” value is recorded as “not significantly different from WT rhuHGF”. Further, in assay [1], the “residual SA compared to WT rhuHGF” value is given as “less than 3%” and the “SA var/SA wt +/-S.D.” value is listed as under 0.02.

In the case of “Q534H, Y673S: huHGF protease domain double variant”, in assay [2], the “Kdwt/Kdvar +/-S.D.” value is reported as 2.24 +/- 1.11 and the “receptor binding / Kd (in words)” value is recorded as “not significantly different from WT rhuHGF”. In assay [1], the “residual SA compared to WT rhuHGF” value is “less than 3%” and the “SA var/SA wt +/-S.D.” value is recorded as under 0.03.

In the case of “Q534H: huHGF protease domain variant, Q534 replaced with H”, in assay [2], the “Kdwt/Kdvar +/-S.D.” value is recorded as 1.48 +/- 0.85. Also, the equilibrium dissociation constant (Kd) in assay [2] (binding to HGF receptor:IgG fusion protein, calculated at the IC50 from fitted inhibition curves) was 0.06 nM. For the same substance, in assay [1], the “SA var/SA wt +/-S.D.” value was 1.19 +/- 0.44.

As for “R126A, N127A: huHGF variant with alterations near or within the hairpin domain”, in assay [1], the “SA +/- mut/wt” value is 0.33 +/- 0.14.

Take “R168A: huHGF Kringle 1 domain substitution variant”: in assay [2], the Kdwt/mut is recorded as 0.98 +/- 0.04. Further, the “SA mut/wt +/- SD” value in assay [1] is reported as 0.83 +/- 0.07.

With “R181A, E183A, E184A: huHGF Kringle 1 domain substitution variant”, the Kdwt/mut in assay [2] is 0.95 +/- 0.04. For the same substance, the “SA mut/wt +/- SD” value in assay [1] is given as 0.92 +/- 0.08.

With “R197A: huHGF Kringle 1 domain substitution variant”, the Kdwt/mut in assay [2] is under 0.03. For the same substance, the “SA mut/wt +/- SD” value in assay [1] is reported as under 0.01.

Take R494E: the “tyrosine phosphorylation of the HGF receptor (in words)” value in assay [3] is listed as “reduced ability to induce phosphorylation of the HGF receptor; also recorded: not efficient in stimulating tyrosine-phosphorylation in A549 cells”. Also, the “Kdwt/Kdvar +/-S.D.” value in assay [2] is reported as 0.31 +/- 0.13. The “SA var/SA wt +/-S.D.” value in assay [1] is on record as under 0.02.

Regarding “V692S: huHGF protease domain variant, V692 replaced with S”, in assay [2], the “Kdwt/Kdvar +/-S.D.” value is 1.02 +/- 0.13 and the “receptor binding / Kd (in words)” value is “Kd similar to WT rhuHGF”. In assay [1], the “fold reduction of SA compared to wt rhuHGF” value was about 10 fold, the “maximum plateau of mitogenic response” value was “approximately 50 % of wt rhuHGF plateau” and the “SA var/SA wt +/-S.D.” value is 0.08 +/- 0.04.

Regarding “Y198A: huHGF Kringle 1 domain substitution variant”, in assay [2], the Kdwt/mut worked out at 0.77. The “SA mut/wt +/- SD” value in assay [1] is given as 0.88 +/- 0.06.

Take Y673S, V692S: in assay [3], the “tyrosine phosphorylation of the HGF receptor (in words)” value was “reduced ability to induce phosphorylation of the HGF receptor; also recorded: not efficient in stimulating tyrosine-phosphorylation in A549 cells”. Besides, in assay [2], the “Kdwt/Kdvar +/-S.D.” value is reported as 1.76 +/- 0.63 and the “receptor binding / Kd (in words)” value was “not significantly different from WT rhuHGF”. In addition, in assay [1], the “residual SA compared to WT rhuHGF” value is recorded as “less than 3%” and the “SA var/SA wt +/-S.D.” value is reported as under 0.02.

As to “Y673S: huHGF protease domain variant, Y673 replaced with S”, in assay [2], the “Kdwt/Kdvar +/-S.D.” value is listed as 1.35 +/- 0.72 and the “receptor binding / Kd (in words)” value is “Kd similar to WT rhuHGF”. Further, in assay [1], the “fold reduction of SA compared to wt rhuHGF” value was “approximately 5 fold”, the “maximum plateau of mitogenic response” value is reported as “approximately 50 % of wt rhuHGF plateau” and the “SA var/SA wt +/-S.D.” value is listed as 0.27 +/- 0.07.
